Data on 13 compounds can be found in patent US8940731B2, “Substituted pyridyl amide compounds as modulators of the histamine H3 receptor” (Janssen Pharmaceutica NV, priority 2006, dated 2015).

In assay [1] the target is T1, Rat H3 (Rattus norvegicus, UniProt Q9QYN8). Nature of the assay: H3 Receptor Binding (Rat). To be noted: rat brain membranes without cerebellum, 0.8 nM N-[3H]-α-methylhistamine, 60 min at 25° C.; average of the results obtained. The method, then: H3 Receptor Binding (Rat)
A rat brain without cerebellum (Zivic Laboratories Inc., Pittsburgh, Pa.) was homogenized in 50 mM Tris-HCl/5 mM EDTA and centrifuged at 1,000 rpm for 5 min. The supernatant was removed and recentrifuged at 15,000 rpm for 30 min. Pellets were rehomogenized in 50 mM Tris/5 mM EDTA (pH 7.4). Membranes were incubated with 0.8 nM N-[^3H]-α-methylhistamine plus/minus test compounds for 60 min at 25° C. and harvested by rapid filtration over GF/C glass fiber filters (pretreated with 0.3% polyethylenimine) followed by four washes with buffer. Nonspecific binding was defined in the presence of 100 μM histamine.
Target sequence in this assay (Q9QYN8 1-397 isoform Q9QYN8-3): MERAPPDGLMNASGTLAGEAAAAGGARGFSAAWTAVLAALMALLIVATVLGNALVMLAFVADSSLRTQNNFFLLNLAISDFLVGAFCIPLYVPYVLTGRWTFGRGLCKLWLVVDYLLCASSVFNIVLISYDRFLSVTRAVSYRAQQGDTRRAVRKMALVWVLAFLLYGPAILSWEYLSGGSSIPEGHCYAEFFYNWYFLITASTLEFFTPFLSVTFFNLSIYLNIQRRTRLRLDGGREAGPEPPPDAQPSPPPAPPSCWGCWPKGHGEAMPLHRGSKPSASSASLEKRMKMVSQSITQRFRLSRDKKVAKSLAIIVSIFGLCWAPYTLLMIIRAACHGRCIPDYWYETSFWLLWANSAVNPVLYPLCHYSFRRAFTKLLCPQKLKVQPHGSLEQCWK

Assay [2] concerns the target T1, Rat H3. Nature of the assay: cell-based. An excerpt: (§1) Sublines of SK-N-MC cells were created that expressed a reporter construct and either the human or rat H3 receptor.
Target sequence in this assay (Q9QYN8 whole entry): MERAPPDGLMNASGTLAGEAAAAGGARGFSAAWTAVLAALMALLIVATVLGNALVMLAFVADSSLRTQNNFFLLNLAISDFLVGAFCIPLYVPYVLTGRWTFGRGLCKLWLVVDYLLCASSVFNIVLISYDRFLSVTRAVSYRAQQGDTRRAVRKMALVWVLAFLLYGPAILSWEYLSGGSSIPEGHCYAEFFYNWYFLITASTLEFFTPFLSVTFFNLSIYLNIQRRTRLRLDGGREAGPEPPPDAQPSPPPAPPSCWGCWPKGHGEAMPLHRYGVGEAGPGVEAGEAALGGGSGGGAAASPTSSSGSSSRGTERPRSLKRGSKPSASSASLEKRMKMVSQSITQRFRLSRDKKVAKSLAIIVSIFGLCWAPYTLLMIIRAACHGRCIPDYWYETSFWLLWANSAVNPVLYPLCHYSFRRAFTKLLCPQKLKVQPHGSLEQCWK
Assay [3] addresses T2, cloned human H3 receptors (Homo sapiens, UniProt Q9Y5N1).
T2 construct: expressed in transfected cells
Nature of the assay: H3 Receptor Binding (Human). Particulars: cloned human H3 receptors stably expressed in SK-N-MC cells; average of the results obtained; read-out: Human H3 Ki. The procedure: H3 Receptor Binding (Human)
Binding of compounds to the cloned human H3 receptors, stably expressed in SK-N-MC cells, was performed as described by Barbier, A. J. et al. (Br. J. Pharmacol. 2004, 143(5), 649-661).

The next assay has as its target T3, human H3 receptor (Homo sapiens, UniProt Q9Y5N1).
T3 construct: expressed in transfected cells; host or cells: SK-N-MC sublines with a reporter construct
Nature of the assay: Cyclic AMP Accumulation (human H3 receptor). The format is cell-based.
Text: as §1

The mark [4] stands for this setting: SK-N-MC subline expressing reporter construct and rat H3 receptor, average, read-out: Rat pA2 (converted).
Setting [5] is: SK-N-MC subline expressing reporter construct and rat H3 receptor, average.
Setting [6] is: SK-N-MC subline expressing reporter construct and human H3 receptor, average.

Where a name gives a salt, the structure may show the parent alone. Read-outs that look alike come from different tables or passages of the source.

T3 sequence (Q9Y5N1 whole entry): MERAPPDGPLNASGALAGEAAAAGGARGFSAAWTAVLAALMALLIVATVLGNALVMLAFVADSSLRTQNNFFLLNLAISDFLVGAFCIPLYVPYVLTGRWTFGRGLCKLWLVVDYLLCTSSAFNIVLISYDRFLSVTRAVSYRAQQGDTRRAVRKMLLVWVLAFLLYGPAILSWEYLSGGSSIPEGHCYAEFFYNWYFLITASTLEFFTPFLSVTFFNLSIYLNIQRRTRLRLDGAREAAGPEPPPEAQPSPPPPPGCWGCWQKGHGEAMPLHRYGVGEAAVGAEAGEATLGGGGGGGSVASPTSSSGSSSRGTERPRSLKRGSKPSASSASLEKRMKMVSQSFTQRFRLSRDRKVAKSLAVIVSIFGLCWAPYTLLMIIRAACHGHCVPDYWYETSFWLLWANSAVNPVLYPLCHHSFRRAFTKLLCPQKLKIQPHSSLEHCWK
T2 sequence (Q9Y5N1 whole entry): as above

What is called Ki is the dissociation constant of the complex between target and ligand, obtained from inhibition or displacement. On to `O=C(c1ccc(Oc2cccc(Cl)c2)nc1)N1CCCN(C2CCC2)CC1` [Example 24, [6-(3-Chloro-phenoxy)-pyridin-3-yl]-(4-cyclobutyl-[1,4]diazepan-1-yl)-methanone], for which the values for the Ki (on Rat H3 [1]; in assay [3]) were 15 nM and 1 nM, respectively. Moreover, the Kb was 4.37 nM at Rat H3 [2] (setting [4]); 0.708 nM on human H3 receptor (SK-N-MC subline expressing reporter construct and human H3 receptor, average, read-out: Human pA2 (converted)).
Turning to `O=C(c1ccc(Oc2ccc(Cl)c(Cl)c2)nc1)N1CCCN(C2CC2)CC1` [Example 9, (4-Cyclopropyl-[1,4]diazepan-1-yl)-[6-(3,4-dichloro-phenoxy)-pyridin-3-yl]-methanone], the inhibition constant (Ki) is 130 nM at Rat H3 [1] and 11 nM in assay [3]. Further, the Kb at Rat H3 [2] was 44.7 nM; on human H3 receptor, 8.71 nM.
As for `O=C(c1ccc(Oc2ccc(Cl)c(Cl)c2)nc1)N1CCCN(C2CCC2)CC1` [Example 14, (4-Cyclobutyl-[1,4]diazepan-1-yl)-[6-(3,4-dichloro-phenoxy)-pyridin-3-yl]-methanone], the Ki at Rat H3 [1] was found to be 10 nM; in assay [3], 2 nM. Also, at Rat H3 [2] (setting [5]), the “Rat pA2” value amounted to 8.16. Also, the “Human pA2” value on human H3 receptor (setting [6]) is 9.26.
Turning to `O=C(c1ccc(Oc2cccc(F)c2)nc1)N1CCCN(C2CCC2)CC1` [Example 39, (4-Cyclobutyl-[1,4]diazepan-1-yl)-[6-(3-fluoro-phenoxy)-pyridin-3-yl]-methanone], the Ki at Rat H3 [1] amounted to 21 nM; in assay [3], 1 nM. Besides, the “Rat pA2” value at Rat H3 [2] (setting [5]) was 8.38. The “Human pA2” value on human H3 receptor (setting [6]) worked out at 9.40.
Consider `N#Cc1nc(C(=O)N2CCCN(C3CC3)CC2)ccc1Oc1cccnc1` [Example 56, 6-(4-Cyclopropyl-[1,4]diazepane-1-carbonyl)-3-(pyridin-3-yloxy)-pyridine-2-carbonitrile hydrochloride salt], for which the Ki came to 179 nM on Rat H3 [1] and 5 nM in assay [3]. Also, the Kb at Rat H3 [2] was 13.8 nM; on human H3 receptor it was 2.34 nM.
The like results for `O=C(c1ccc(Oc2ccc(F)cc2F)nc1)N1CCCN(C2CCC2)CC1` [Example 30, (4-Cyclobutyl-[1,4]diazepan-1-yl)-[6-(2,4-difluoro-phenoxy)-pyridin-3-yl]-methanone] were, in that order, 26 nM, 1 nM, 4.17 nM and 0.537 nM.
The like results for `CSc1ccc(Oc2ccc(C(=O)N3CCCN(C4CCC4)CC3)cn2)cc1C` [Example 40, (4-Cyclobutyl-[1,4]diazepan-1-yl)-[6-(3-methyl-4-methylsulfanyl-phenoxy)-pyridin-3-yl]-methanone] were, in that order, 36 nM, 1 nM, 13.5 nM and 1.32 nM.
Consider `O=C(c1ccc(Oc2ccccc2F)nc1)N1CCCN(C2CCC2)CC1` [Example 29, (4-Cyclobutyl-[1,4]diazepan-1-yl)-[6-(2-fluoro-phenoxy)-pyridin-3-yl]-methanone], for which the Ki on Rat H3 [1] was 20 nM; in assay [3], 1 nM. Moreover, the Kb was 3.55 nM at Rat H3 [2] and 0.813 nM on human H3 receptor.
Consider `O=C(c1ccc(Oc2ccc(Cl)c(Cl)c2)cn1)N1CCCN(C2CCC2)CC1` [Example 51, (4-Cyclobutyl-[1,4]diazepan-1-yl)-[5-(3,4-dichloro-phenoxy)-pyridin-2-yl]-methanone trifluoroacetic acid salt], for which the Ki amounted to 60 nM at Rat H3 [1] and 2 nM in assay [3]. Also, the Kb on Rat H3 [2] is 21.9 nM; at human H3 receptor, 2.29 nM.
Regarding `Cc1ccccc1Oc1ccc(C(=O)N2CCCN(C3CCC3)CC2)cn1` [Example 102, (4-Cyclobutyl-[1,4]diazepan-1-yl)-(6-o-tolyloxy-pyridin-3-yl)-methanone], the Ki on Rat H3 [1] was determined as 17 nM; in assay [3], 1 nM. The Kb on Rat H3 [2] is 1.2 nM; at human H3 receptor, 0.2 nM.
As for `O=C(c1ccc(Oc2ccc(F)c(F)c2)nc1)N1CCCN(C2CCC2)CC1` [Example 26, (4-Cyclobutyl-[1,4]diazepan-1-yl)-[6-(3,4-difluoro-phenoxy)-pyridin-3-yl]-methanone], the inhibitory constant (Ki) on Rat H3 [1] was found to be 16 nM; in assay [3] it was 1 nM. Also, the Kb is 2.14 nM on Rat H3 [2] and 0.229 nM on human H3 receptor.
The like results for `O=C(c1ccc(Oc2ccccc2F)nc1)N1CCCN(C2CC2)CC1` [Example 31, (4-Cyclopropyl-[1,4]diazepan-1-yl)-[6-(2-fluoro-phenoxy)-pyridin-3-yl]-methanone] were, in that order, 39 nM, 4 nM, 7.59 nM and 2.4 nM.
With `O=C(c1ccc(Oc2ccc(Cl)cc2)nc1)N1CCCN(C2CCC2)CC1` [Example 25, [6-(4-Chloro-phenoxy)-pyridin-3-yl]-(4-cyclobutyl-[1,4]diazepan-1-yl)-methanone], the Ki was 25 nM at Rat H3 [1] and 1 nM in assay [3]. Besides, the Kb at Rat H3 [2] (setting [4]) was 3.8 nM. The “Human pA2” value at human H3 receptor (setting [6]) is listed as 9.22.
